Consider one compound from ChEMBL document CHEMBL1157374, “Lack of an effect of antibiotic treatment on prolonged detection of chlamydial DNA in murine genital tract infection” (2007).

Active and inactive are the calls of the source. The rule behind the calls is not given here.

Assay [1] relates to Chlamydia trachomatis. Kind of assay: Antimicrobial activity against Chlamydia trachomatis Nigg infected in BALB/c mouse genital tract infection model assessed as recovery of inclusion forming units from cervicovaginal swabs at 3 mg/ml, ip administered on days 10 to 24 days postinfection. It counts as functional, organism-based.
Assay [2] deals with Chlamydia trachomatis. Description: Antimicrobial activity against Chlamydia trachomatis Nigg infected in BALB/c mouse genital tract infection model assessed as recovery of inclusion forming units from cervicovaginal swabs at 3 mg/ml, ip administered on days 42 to 56 days postinfection. It is filed as functional, organism-based.
Assay [3] deals with Chlamydia trachomatis. Kind of assay: Antimicrobial activity against Chlamydia trachomatis Nigg infected in BALB/c mouse genital tract infection model assessed as severe oviduct dilation at 3 mg/ml, ip administered on days 10 to 24 days postinfection. It is filed as functional.
Assay [4] deals with Chlamydia trachomatis. Kind of assay: Antimicrobial activity against Chlamydia trachomatis Nigg infected in BALB/c mouse genital tract infection model assessed as severe oviduct dilation at 3 mg/ml, ip administered on days 42 to 56 days postinfection. It counts as functional.
For assay [5], the system named is Chlamydia trachomatis. Description: Effect on chlamydial plasmid DNA of Chlamydia trachomatis Nigg infected in BALB/c mouse genital tract infection model at 3 mg/ml, ip administered on days 10 to 24 days postinfection by nested PCR. It counts as functional, organism-based.
Assay [6] has as its system Chlamydia trachomatis. Kind of assay: Effect on chlamydial plasmid DNA of Chlamydia trachomatis Nigg infected in BALB/c mouse genital tract infection model at 3 mg/ml, ip administered on days 42 to 56 days postinfection by nested PCR. It counts as functional, organism-based.

Turning to `C[C@H]1c2cccc(O)c2C(=O)C2=C(O)[C@]3(O)C(=O)C(C(N)=O)=C(O)[C@@H](N(C)C)[C@@H]3[C@@H](O)[C@@H]21.O` [DOXYCYCLINE], the result in assay [1] and in assay [2] was Active. The Activity turned out to be 30% in assay [3] and 80% in assay [4]. Moreover, the result in assay [5] and in assay [6] was inactive.
